Measured values published in US9884063B2, “Amido-substituted azole compounds” (Bayer Pharma Aktiengesellschaft, priority 2014, dated 2018).

Experiments:
TNKS2 = target: T1, TNKS2 (Homo sapiens, UniProt Q9H2K2); experiment: Modified TNKS2 Assay 2 (auto-parsylation, [3H]-NAD+ SPA); assay type: biochemical; conditions: 6 nM TNKS2, 96 well
T1 sequence (Q9H2K2 1-1166): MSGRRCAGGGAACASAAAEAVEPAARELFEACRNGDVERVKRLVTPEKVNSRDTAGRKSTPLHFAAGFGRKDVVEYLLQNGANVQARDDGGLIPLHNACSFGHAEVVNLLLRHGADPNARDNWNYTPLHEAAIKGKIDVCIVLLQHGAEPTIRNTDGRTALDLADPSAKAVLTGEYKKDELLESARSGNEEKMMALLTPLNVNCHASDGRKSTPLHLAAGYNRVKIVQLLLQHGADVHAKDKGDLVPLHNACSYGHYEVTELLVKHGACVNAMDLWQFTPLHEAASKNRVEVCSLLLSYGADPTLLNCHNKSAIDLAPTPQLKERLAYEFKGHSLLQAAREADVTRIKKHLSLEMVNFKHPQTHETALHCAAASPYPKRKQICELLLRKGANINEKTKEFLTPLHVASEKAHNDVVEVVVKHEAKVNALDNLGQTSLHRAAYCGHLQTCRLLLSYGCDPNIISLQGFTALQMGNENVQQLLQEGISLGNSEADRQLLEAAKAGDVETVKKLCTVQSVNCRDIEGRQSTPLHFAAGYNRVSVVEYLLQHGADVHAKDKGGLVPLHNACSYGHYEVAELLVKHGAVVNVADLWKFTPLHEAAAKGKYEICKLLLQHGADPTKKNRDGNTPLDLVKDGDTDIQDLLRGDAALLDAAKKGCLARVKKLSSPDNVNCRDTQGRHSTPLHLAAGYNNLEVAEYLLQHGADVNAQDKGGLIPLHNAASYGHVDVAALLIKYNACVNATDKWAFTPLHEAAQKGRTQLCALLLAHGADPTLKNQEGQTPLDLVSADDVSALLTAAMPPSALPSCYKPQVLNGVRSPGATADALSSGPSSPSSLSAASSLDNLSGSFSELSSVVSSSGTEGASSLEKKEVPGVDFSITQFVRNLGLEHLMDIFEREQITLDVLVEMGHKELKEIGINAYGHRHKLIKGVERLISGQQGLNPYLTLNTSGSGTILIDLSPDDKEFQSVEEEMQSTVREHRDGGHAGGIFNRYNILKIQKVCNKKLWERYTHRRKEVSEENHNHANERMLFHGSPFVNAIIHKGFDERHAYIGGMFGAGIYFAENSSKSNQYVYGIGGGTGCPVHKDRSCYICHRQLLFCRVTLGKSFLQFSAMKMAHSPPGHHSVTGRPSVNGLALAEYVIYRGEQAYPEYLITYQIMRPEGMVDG

[1] = tested on: wildtype Wnt signaling cascade; experiment: HEK293 TOP Assay (Super TopFlash luciferase reporter, Wnt-3a stimulated); assay type: cell-based; conditions: Homo sapiens, HEK293, 16 h, HEK293 TOP reporter cell line, Wnt-3a at EC50, 16 hours incubation, compound dilution series 50 μM to 15 nM
In short: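 HEK293 cells stably carrying Super TopFlash (TOP) or FOP reporter, stimulated with recombinant human Wnt-3a (2500–5 ng/ml, two-fold steps). Both lines incubated in parallel with compound from 50 μM to 15 nM (3.16-fold) in CAFTY buffer pH 7.4 with 2 mM Ca2+ and 0.01% BSA; selectivity judged TOP vs FOP.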

Compound | IC50 (TNKS2) [nM] | IC50 [1] [nM]
CNC(=O)c1nc[nH]c1C(=O)Nc1ccc(NC(=O)c2ccccc2OC(F)(F)F)cc1 [Example 243, N^4-methyl-N^5-(4-{[2-(trifluoromethoxy)benzoyl]amino}phenyl)-1H-imidazole-4,5-dicarboxamide] | > 10000 | 11500
CNC(=O)c1nc[nH]c1C(=O)Nc1ccc(NC(=O)c2ccc(C)cc2Cl)cc1 [Example 244, N^5-{4-[(2-chloro-4-methylbenzoyl)amino]phenyl}-N^4-methyl-1H-imidazole-4,5-dicarboxamide] | 90 | 170
CNC(=O)c1nc[nH]c1C(=O)Nc1ccc(NC(=O)c2ncccc2Cl)cc1 [Example 247, N^5-(4-{[(3-chloropyridin-2-yl)carbonyl]amino}phenyl)-N^4-methyl-1H-imidazole-4,5-dicarboxamide] | 570 | 400
CNC(=O)c1nc[nH]c1C(=O)Nc1ccc(NC(=O)c2cc(OC)ccc2Cl)cc1 [Example 248, N^5-{4-[(2-chloro-5-methoxybenzoyl)amino]phenyl}-N^4-methyl-1H-imidazole-4,5-dicarboxamide] | 480 | 850
CCOc1ccc(C(=O)Nc2ccc(NC(=O)c3[nH]cnc3C(=O)NC)cc2)c(Cl)c1 [Example 250, N^5-{4-[(2-chloro-4-ethoxybenzoyl)amino]phenyl}-N^4-methyl-1H-imidazole-4,5-dicarboxamide] | 220 | 920
CNC(=O)c1nc[nH]c1C(=O)Nc1ccc(NC(=O)c2ccc(OC(F)F)cc2F)cc1 [Example 251, N^5-(4-{[4-(difluoromethoxy)-2-fluorobenzoyl]amino}phenyl)-N^4-methyl-1H-imidazole-4,5-dicarboxamide] | > 10000 | 7900
CNC(=O)c1nc[nH]c1C(=O)Nc1ccc(NC(=O)c2cccc(OC)c2Cl)cc1 [Example 252, N^5-{4-[(2-chloro-3-methoxybenzoyl)amino]phenyl}-N^4-methyl-1H-imidazole-4,5-dicarboxamide] | 3800 | 4050
CNC(=O)c1nc[nH]c1C(=O)Nc1ccc(NC(=O)c2ccc(OC(F)(F)F)cc2F)cc1 [Example 253, N^5-(4-{[2-fluoro-4-(trifluoromethoxy)benzoyl]amino}phenyl)-N^4-methyl-1H-imidazole-4,5-dicarboxamide] | > 10000 | 12000
CNC(=O)c1nc[nH]c1C(=O)Nc1ccc(NC(=O)c2cnccc2Cl)cc1 [Example 254, N^5-(4-{[(4-chloropyridin-3-yl)carbonyl]amino}phenyl)-N^4-methyl-1H-imidazole-4,5-dicarboxamide] | 430 | 750
CCS(=N)(=O)c1ccc(C(=O)Nc2ccc(NC(=O)c3[nH]cnc3C(=O)NC)cc2)c(Cl)c1 (centres unmarked) [Example 255, N^5-(4-{[2-chloro-4-(S-ethylsulfonimidoyl)benzoyl]amino}phenyl)-N^4-methyl-1H-imidazole-4,5-dicarboxamide] | 640 | 1240
CCS(=N)(=O)c1ccc(C(=O)Nc2ccc(NC(=O)c3[nH]cnc3C(=O)NCCN3CCCCC3)cc2)c(Cl)c1 (centres unmarked) [Example 256, N^5-(4-{[2-chloro-4-(S-ethylsulfonimidoyl)benzoyl]amino}phenyl)-N^4-[2-(piperidin-1-yl)ethyl]-1H-imidazole-4,5-dicarboxamide] | 10 | 900
CCNC(=O)c1nc[nH]c1C(=O)Nc1ccc(NC(=O)c2ccccc2S(C)(=O)=O)cc1 [Example 257, N^4-ethyl-N^5-(4-{[2-(methylsulfonyl)benzoyl]amino}phenyl)-1H-imidazole-4,5-dicarboxamide] | 5000 | 2600
CCNC(=O)c1nc[nH]c1C(=O)Nc1ccc(NC(=O)c2ccc(OCC)cc2Cl)cc1 [Example 259, N^5-{4-[(2-chloro-4-ethoxybenzoyl)amino]phenyl}-N^4-ethyl-1H-imidazole-4,5-dicarboxamide] | 7600 | 880
